Like-named read-outs stand apart in the source and are kept apart here. Marks after values point to notes of the source that are not given here.
Columns and labels:
[1] = system: MCF-7 cells; assay: Cell viability assay (MTT/AlamarBlue), antiproliferative activity; type: cell-based, human; conditions: for IC50: Homo sapiens, MCF7, 72 h, read-out: IC50 (MCF-7, 72 h)
From the text: […]. The introduction of the halogen substituent at C-3 was examined in an effort to investigate the effect on the activity of this substituent, and subsequently optimising the cytotoxic effects against MCF-7 human breast cancer cells.
The human breast carcinoma cell line MCF-7 was purchased from the European Collection of Animal Cell Cultures (ECACC). Triple negative breast cancer Hs578T cells and its invasive variant Hs578Ts(i)8 were a kind gift from Dr. Susan McDonnell, School of Chemical and Bioprocess Engineering, University College Dublin. U266 cells were a gift from Dr. Tony McElligott, School of Medicine, St James’s Hospital, Trinity College Dublin. HT-29 cells were purchased from the European Collection of Cell Cultures (originating from a human adenocarcinoma of the colon). The human breast carcinoma cell line MDA-MB-231 and the HL-60 cells derived from a patient with acute myeloid leukaemia were both obtained from ECACC (Salisbury, UK). The SW-480 cells were a kind gift from Dr. Brian Flood, School of Biochemistry and Immunology, Trinity College Dublin. HEK-293T (normal epithelial embryonic kidney cells) were cultured in Dulbecco’s Modified Eagle’s Medium (DMEM) with GlutaMAXTM-I in the absence of non-essential amino acids. Human breast cancer MCF-7 cells and multiple myeloma U266 cells were cultured in Minimum Essential Media (MEM) with GlutaMAX™-I, supplemented with 1% (v/v) non-essential amino acids, 10% 2(v/v) foetal bovine serum (FBS) and 1% (v/v) penicillin/streptomycin 5000 U/mL. MDA-MB-231 cells were maintained in DMEM supplemented with 10% (v/v) foetal bovine serum, 2 mM L-glutamine and 100 μg/mL penicillin/streptomycin (complete medium). Colon cancer HT-29 and SW-480 and triple negative breast cancer Hs578T and its invasive variant Hs578T8i were cultured in DMEM with GlutaMAX™-I, with the same supplement in the absence of non-essential amino acids. Leukaemia HL-60 cancer cells were cultured in Roswell Park Memorial Institute Media (RPMI-1640) with GlutaMAX™-I, supplemented with 10% FCS media, and 100 μg/mL penicillin/streptomycin as above. Cell numbers were monitored using a haemocytometer. Cell culture flasks were incubated in a humidified incubator (5% CO2/95% air) at 37 °C. All cell lines were sub-cultured three times per week with trypsinisation using TrypLE Express (1X) required for adherent cell lines.
. All stock solutions and serial dilution in ethanol/DMSO were stored at -20 °C. All cells were seeded at a density of 2.5 × 10^4 cells/mL in a 96-well plate (200 μL per well). The cells were incubated in a […] atmosphere at 37 °C for 24 h, then treated with test compound (2 μL of stock solutions per 200-microlitre well) in ethanol to obtain a concentration range of 1 nM–200 μM for the study. The plates were then re-incubated for a further 72 h. Control wells contained an equivalent volume of the vehicle ethanol or DMSO (1% v/v). MTT cell viability assay: The culture medium was removed, and the cells were washed with phosphate buffered saline (PBS, […]). MTT (dissolved in PBS, […]) was added to obtain a final concentration of MTT (1 mg/mL). Cells were incubated at 37 °C for 3 h in the dark. Solubilisation was commenced by the addition of DMSO ([…]) and the cells were maintained at 20 °C in the dark for 20 min before reading the absorbance to ensure complete colour diffusion. The absorbance value of control cells (no added compound) was set to 100% cell viability and absorbance versus cell density per well was determined to assess cell viability using Graph-Pad Prism software. AlamarBlue cell viability assay: Cells were seeded in 96-well plates (e.g., MCF-7, 5 × 10^3 cells/well) and (HT-29 cells, 1 × 10^3 cells/well) and (HL-60 cells, 1 × 10^4 cells/well) with a total volume per well of 200 µL. After 24 h, cells were treated in triplicate with serial dilutions of CA-4 or β-lactam analogues (0.001–100 μM), medium alone or vehicle (1% ethanol (v/v)). […]

| IC50 ([1]; MCF-7, 72 h) [µM] | melting point [°C] | Compound | inhibition of cell viability at a concentration of 10 μM ([1]; MCF-7, 72 h) | IC50 [1] [µM] |
| --- | --- | --- | --- | --- |
| 14.8 ± 1.58 | 101 to 102 | COc1ccc(N2C(=O)C(Cl)C2c2cc(OC)c(OC)c(OC)c2)cc1 (centres unmarked) [Compound 12a, 3-Chloro-1-(4-methoxyphenyl)-4-(3,4,5-trimethoxyphenyl)azetidin-2-one] | – | – |
| – | 113 to 115 | CCOc1ccc(N2C(=O)C(Cl)C2c2cc(OC)c(OC)c(OC)c2)cc1 (centres unmarked) [Compound 12b, 3-Chloro-1-(4-ethoxyphenyl)-4-(3,4,5-trimethoxyphenyl)azetidin-2-one] | 25% (10 μM) ^c | – |
| – | 101 to 103 | COc1cc(C2C(Cl)C(=O)N2c2ccc(SC)cc2)cc(OC)c1OC (centres unmarked) [Compound 12c, 3-Chloro-1-(4-(methylthio)phenyl)-4-(3,4,5-trimethoxyphenyl) azetidin-2-one] | 10% (10 μM) ^c | – |
| 6.61 ± 2 | – | COc1ccc(C2N(c3cc(OC)cc(OC)c3)C(=O)C2(Cl)Cl)cc1 (centres unmarked) [Compound 15a, 3,3-Dichloro-1-(3,5-dimethoxyphenyl)-4-(4-methoxyphenyl)azetidin-2-one] | – | – |
| 0.273 ± 0.01 | – | CCOc1ccc(C2N(c3cc(OC)cc(OC)c3)C(=O)C2(Cl)Cl)cc1 (centres unmarked) [Compound 15b, 3,3-Dichloro-1-(3,5-dimethoxyphenyl)-4-(4-ethoxyphenyl)azetidin-2-one] | – | – |
| 0.613 ± 0.04 | – | COc1cc(N2C(=O)C(Br)C2c2ccc(SC)cc2)cc(OC)c1OC (centres unmarked) [Compound 16c, 3-Bromo-4-(4-(methylthio)phenyl)-1-(3,4,5-trimethoxyphenyl)azetidin-2-one] | – | – |
| 0.525 ± 0.03 | – | COc1ccc(C2C(Br)C(=O)N2c2cc(OC)c(OC)c(OC)c2)cc1C (centres unmarked) [Compound 16e, 3-Bromo-4-(4-methoxy-3-methylphenyl)-1-(3,4,5-trimethoxyphenyl) azetidin-2-one] | – | – |
| 0.39 ± 0.03 | – | COc1ccc(C2C(Br)C(=O)N2c2cc(OC)c(OC)c(OC)c2)cc1F (centres unmarked) [Compound 16f, 3-Bromo-4-(3-fluoro-4-methoxyphenyl)-1-(3,4,5-trimethoxyphenyl) azetidin-2-one] | – | – |
| 0.472 ± 0.2 | – | COc1ccc(C2C(Br)C(=O)N2c2cc(OC)c(OC)c(OC)c2)cc1Cl (centres unmarked) [Compound 16g, 3-Bromo-4-(3-chloro-4-methoxyphenyl)-1-(3,4,5-trimethoxyphenyl) azetidin-2-one] | – | – |
| 0.62 ± 0.04 | – | COc1ccc(C2C(Br)C(=O)N2c2cc(OC)c(OC)c(OC)c2)cc1Br (centres unmarked) [Compound 16h, 3-Bromo-4-(3-bromo-4-methoxyphenyl)-1-(3,4,5-trimethoxyphenyl) azetidin-2-one] | – | – |

The next lines start with the compound.

| Compound | IC50 ([1]; MCF-7, 72 h) [µM] | melting point [°C] | inhibition of cell viability at a concentration of 10 μM ([1]; MCF-7, 72 h) | IC50 [1] [µM] |
| --- | --- | --- | --- | --- |
| COc1ccc([C@@H]2[C@H](Cl)C(=O)N2c2cc(OC)c(OC)c(OC)c2)cc1 (relative stereo) [Compound 10e cis, Cis-3-chloro-1-(3,4,5-trimethoxyphenyl)-4-(4-methoxyphenyl) azetidin-2-one] | 0.317 ± 0.04 | – | – | – |
| COc1cc(N2C(=O)C(Cl)C2c2ccccc2)cc(OC)c1OC (centres unmarked) [Compound 10a, 3-Chloro-1-(3,4,5-trimethoxyphenyl)-4-phenylazetidin-2-one] | 23.4 ± 2.8 | – | – | – |
| COc1cc(N2C(=O)C(Cl)C2c2ccc(Cl)cc2)cc(OC)c1OC (centres unmarked) [Compound 10b, 3-Chloro-4-(4-chlorophenyl)-1-(3,4,5-trimethoxyphenyl)azetidin-2-one] | 1.3 ± 0.17 | – | – | – |
| COc1cc(N2C(=O)C(Cl)C2c2ccc(Br)cc2)cc(OC)c1OC (centres unmarked) [Compound 10c, 4-(4-Bromophenyl)-3-chloro-1-(3,4,5-trimethoxyphenyl)azetidin-2-one] | 0.506 ± 0.11 | – | – | – |
| COc1cc(N2C(=O)C(Cl)C2c2ccc([N+](=O)[O-])cc2)cc(OC)c1OC (centres unmarked) [Compound 10d, 3-Chloro-1-(3,4,5-trimethoxyphenyl)-4-(4-nitrophenyl)azetidin-2-one] | 4.37 ± 0.61 | – | – | – |
| COc1cc(N2C(=O)C(Cl)C2c2ccc(Oc3ccccc3)cc2)cc(OC)c1OC (centres unmarked) [Compound 10g, 3-Chloro-1-(3,4,5-trimethoxyphenyl)-4-(4-phenoxyphenyl)azetidin-2-one] | 64.1 ± 7.3 | – | – | – |
| COc1cc(N2C(=O)C(Cl)C2c2ccc(OCc3ccccc3)cc2)cc(OC)c1OC (centres unmarked) [Compound 10h, 4-(4-Benzyloxyphenyl)-3-chloro-1-(3,4,5-trimethoxyphenyl)azetidin-2-one] | 59.9 ± 6.99 | 96 to 98 | – | – |
| COc1ccc(C2C(Cl)C(=O)N2c2cc(OC)c(OC)c(OC)c2)cc1[N+](=O)[O-] (centres unmarked) [Compound 10m, 3-Chloro-4-(4-methoxy-3-nitrophenyl)-1-(3,4,5-trimethoxyphenyl) azetidin-2-one] | 3.09 ± 0.41 | 93 to 95 | – | – |
| COc1cc(N2C(=O)C(Cl)(Cl)C2c2ccccc2)cc(OC)c1OC (centres unmarked) [Compound 11a, 3,3-Dichloro-1-(3,4,5-trimethoxyphenyl)-4-phenylazetidin-2-one] | 37.2 ± 3.21 | 80 to 81 | – | – |
| COc1cc(N2C(=O)C(Cl)(Cl)C2c2ccc(Cl)cc2)cc(OC)c1OC (centres unmarked) [Compound 11b, 3,3-Dichloro-4-(4-chlorophenyl)-1-(3,4,5-trimethoxyphenyl)azetidin-2-one] | 12.8 ± 1.08 | 150 to 153 | – | – |
| COc1cc(N2C(=O)C(Cl)(Cl)C2c2ccc(Br)cc2)cc(OC)c1OC (centres unmarked) [Compound 11c, 4-(4-Bromophenyl)-3,3-dichloro-1-(3,4,5-trimethoxyphenyl)azetidin-2-one] | 18.2 ± 1.83 | 150 to 152 | – | – |
| COc1cc(N2C(=O)C(Cl)(Cl)C2c2ccc([N+](=O)[O-])cc2)cc(OC)c1OC (centres unmarked) [Compound 11d, 3,3-Dichloro-1-(3,4,5-trimethoxyphenyl)-4-(4-nitrophenyl)azetidin-2-one] | 61.6 ± 7.61 | 116 to 118 | – | – |
| COc1cc(N2C(=O)C(Cl)(Cl)C2c2ccc(Oc3ccccc3)cc2)cc(OC)c1OC (centres unmarked) [Compound 11g, 3,3-Dichloro-1-(3,4,5-trimethoxyphenyl)-4-(4-phenoxyphenyl)azetidin-2-one] | 62.3 ± 10.2 | 82 to 84 | – | – |
| COc1cc(N2C(=O)C(Cl)(Cl)C2c2ccc(OCc3ccccc3)cc2)cc(OC)c1OC (centres unmarked) [Compound 11h, 4-(4-Benzyloxyphenyl)-3,3-dichloro-1-(3,4,5-trimethoxyphenyl) azetidin-2-one] | 36.3 ± 3.68 | – | – | – |
| COc1cc(N2C(=O)C(Cl)(Cl)C2c2cccc3ccccc23)cc(OC)c1OC (centres unmarked) [Compound 11j, 3,3-Dichloro-1-(3,4,5-trimethoxyphenyl)-4-(naphthalen-1-yl)azetidin-2-one] | 7.99 ± 0.7 | 146 to 148 | – | – |
| COc1cc(N2C(=O)C(Cl)(Cl)C2c2ccc3ccccc3c2)cc(OC)c1OC (centres unmarked) [Compound 11k, 3,3-Dichloro-1-(3,4,5-trimethoxyphenyl)-4-(naphthalen-2-yl)azetidin-2-one] | 0.322 ± 0.04 | 164 to 166 | – | – |
| COc1ccc(C2N(c3cc(OC)c(OC)c(OC)c3)C(=O)C2(Cl)Cl)cc1[N+](=O)[O-] (centres unmarked) [Compound 11m, 3,3-Dichloro-4-(4-methoxy-3-nitrophenyl)-1-(3,4,5-trimethoxyphenyl) azetidin-2-one] | 0.353 ± 0.04 | 117 to 119 | – | – |
| COc1ccc(C2N(c3cc(OC)c(OC)c(OC)c3)C(=O)C2(Cl)Cl)cc1OP(=O)(O)O (centres unmarked) [Compound 18, 5-(3,3-Dichloro-1-(3,4,5-trimethoxyphenyl)-4-oxoazetidin-2-yl)-2-methoxyphenyl dihydrogen phosphate] | – | – | – | 0.077 ± 0.01 |

From PMC8624998, “Synthesis and Antiproliferative Evaluation of 3-Chloroazetidin-2-ones with Antimitotic Activity: Heterocyclic Bridged Analogues of Combretastatin A-4” (Pharmaceuticals, 2021)
